How the values were obtained:
Format in all cases: cell-based
[1] = biological target: T1, Cloned human M1 receptor (CHRM1) stably expressed in HEK293 cells (Homo sapiens, UniProt P11229); assay: CHRM1 Ca++ Flux Assay (agonist mode, FDSS 7000EX); settings: for M1 FDSS PA: Percent Activity; for EC50: geometric mean if tested more than once; for Emax: HEK293, Percent Activity, read-out: M1 FDSS PA
T1 construct: expressed in transfected cells; host or cells: HEK293
T1 sequence (P11229 1-460): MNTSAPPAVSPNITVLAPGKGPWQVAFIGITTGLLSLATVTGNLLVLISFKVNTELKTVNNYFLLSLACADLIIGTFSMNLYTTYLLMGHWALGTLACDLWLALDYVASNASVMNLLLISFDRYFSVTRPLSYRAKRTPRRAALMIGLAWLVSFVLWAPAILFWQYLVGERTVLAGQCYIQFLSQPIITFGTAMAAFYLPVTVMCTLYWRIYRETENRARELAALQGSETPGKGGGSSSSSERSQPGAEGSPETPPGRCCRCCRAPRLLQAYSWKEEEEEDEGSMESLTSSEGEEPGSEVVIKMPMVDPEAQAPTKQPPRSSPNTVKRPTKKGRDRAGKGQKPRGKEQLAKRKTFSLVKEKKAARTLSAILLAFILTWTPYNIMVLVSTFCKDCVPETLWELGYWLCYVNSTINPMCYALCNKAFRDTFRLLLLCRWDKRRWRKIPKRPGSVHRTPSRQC
Procedure, shortened: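 Compounds tested as agonists at 11 concentrations in triplicate, with calcium traces captured over 3 minutes. Cells were HEK293 with stable human CHRM1 expression, plated overnight at 25K/well and loaded with calcium dye. Responses normalized to carbachol EC100 and fitted by four-parameter nonlinear regression.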

[2] = biological target: T2, human cloned CHRM3 receptor (M3_CHO cells) (Homo sapiens, UniProt P20309); assay: CHRM3 Ca++ Flux Assay (agonist mode, FDSS 7000EX); settings: for M3 FDSS PA / Emax: Percent Activity measured to EC100 of Carbachol; for EC50: agonist mode, geometric mean if tested more than once, read-out: M3 FDSS EC50; for Emax: read-out: M3 FDSS PA
T2 construct: expressed in transfected cells; host or cells: CHO-K1
T2 sequence (P20309 whole entry): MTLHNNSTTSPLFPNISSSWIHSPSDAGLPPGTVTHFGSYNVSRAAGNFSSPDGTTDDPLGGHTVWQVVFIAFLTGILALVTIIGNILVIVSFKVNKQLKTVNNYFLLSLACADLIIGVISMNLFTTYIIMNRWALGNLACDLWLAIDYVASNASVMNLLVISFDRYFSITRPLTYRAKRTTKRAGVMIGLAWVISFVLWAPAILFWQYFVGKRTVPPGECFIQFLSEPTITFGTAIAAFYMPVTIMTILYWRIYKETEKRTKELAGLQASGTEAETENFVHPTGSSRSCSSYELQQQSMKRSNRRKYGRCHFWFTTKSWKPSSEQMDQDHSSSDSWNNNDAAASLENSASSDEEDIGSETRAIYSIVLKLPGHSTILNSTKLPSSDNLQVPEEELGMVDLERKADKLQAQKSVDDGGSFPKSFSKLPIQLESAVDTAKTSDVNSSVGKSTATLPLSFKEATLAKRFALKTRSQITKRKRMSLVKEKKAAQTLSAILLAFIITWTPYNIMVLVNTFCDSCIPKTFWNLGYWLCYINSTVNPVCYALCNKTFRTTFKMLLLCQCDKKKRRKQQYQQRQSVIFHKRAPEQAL
Procedure, shortened: (§1)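 Stable CHO-K1 lines (human M3 or M5), calcium-dye loaded ≥1 h, assayed in Ca/Mg-free HBSS + 20 mM HEPES + 2.5 mM probenecid. 11-pt dose response, triplicate, 3 min fluorescence read. 4-parameter regression; % activity vs carbachol EC100.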

[3] = biological target: T3, human cloned CHRM5 receptor (M5_CHO) (Homo sapiens, UniProt P08912); assay: CHRM5 Ca++ Flux Assay (agonist mode, FDSS 7000EX); settings: for M5 FDSS PA / Emax: Percent Activity measured to EC100 of Carbachol; for EC50: agonist mode, geometric mean if tested more than once, read-out: M5 FDSS EC50; for Emax: read-out: M5 FDSS PA
T3 construct: expressed in transfected cells; host or cells: CHO (M5_CHO)
T3 sequence (P08912 1-532): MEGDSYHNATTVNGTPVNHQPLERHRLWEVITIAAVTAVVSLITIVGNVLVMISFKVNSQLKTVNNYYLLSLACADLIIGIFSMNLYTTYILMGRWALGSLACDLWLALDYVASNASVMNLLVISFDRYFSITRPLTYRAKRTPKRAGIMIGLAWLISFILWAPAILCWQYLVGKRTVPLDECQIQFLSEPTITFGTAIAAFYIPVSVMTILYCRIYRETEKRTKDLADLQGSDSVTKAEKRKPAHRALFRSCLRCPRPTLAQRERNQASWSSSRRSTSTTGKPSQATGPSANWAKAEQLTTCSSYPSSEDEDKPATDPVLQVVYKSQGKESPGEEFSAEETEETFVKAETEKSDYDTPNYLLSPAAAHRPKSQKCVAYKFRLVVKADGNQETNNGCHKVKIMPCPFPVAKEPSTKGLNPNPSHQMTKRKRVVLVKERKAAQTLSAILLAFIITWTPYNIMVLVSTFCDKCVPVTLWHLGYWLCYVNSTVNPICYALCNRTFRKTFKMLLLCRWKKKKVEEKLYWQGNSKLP
Procedure, shortened: as §1

Row | M1 FDSS PA [1] [%] | EC50 [1] [µM] | M3 FDSS PA [2] [%] | EC50 [2] [µM] | M5 FDSS PA [3] [%] | EC50 [3] [µM] | Emax [1] [%] | Emax [2] [%] | Emax [3] [%] | SMILES
1 | 77 | 0.211 | 0 | > 25 | 0 | > 25 | – | – | – | Cc1nc(COc2ccccc2C2CCN([C@@H]3CCC4(C3)CN(C(=O)C3(F)CC3)C4)CC2)no1 (single isomer, unassigned) [Example 7Z, (R)-(1-fluorocyclopropyl)(6-(4-(2-((5-methyl-1,2,4-oxadiazol-3-yl)methoxy)phenyl)piperidin-1-yl)-2-azaspiro[3.4]octan-2-yl)methanone or (S)-(1-fluorocyclopropyl)(6-(4-(2-((5-methyl-1,2,4-oxadiazol-3-yl)methoxy)phenyl)piperidin-1-yl)-2-azaspiro[3.4]octan-2-yl)methanone]
2 | – | > 25 | – | > 25 | – | > 25 | 0 | 0 | 0 | c1ccc(C2CCN([C@@H]3CCC4(C3)CN(c3ncncn3)C4)CC2)c(OCC2CCOCC2)c1 [Example 5Q, (R)-6-(4-(2-((tetrahydro-2H-pyran-4-yl)methoxy)phenyl)piperidin-1-yl)-2-(1,3,5-triazin-2-yl)-2-azaspiro[3.4]octane]
3 | 84 | 0.01 | 0 | > 25 | 0 | > 25 | – | – | – | O=C(N1CC2(CC[C@@H](N3CCC(c4ccccc4OCc4ncccn4)CC3)C2)C1)C1(F)CC1 (single isomer, unassigned) [Example 7M, (R)-(1-fluorocyclopropyl)(6-(4-(2-(pyrimidin-2-ylmethoxy)phenyl)piperidin-1-yl)-2-azaspiro[3.4]octan-2-yl)methanone or (S)-(1-fluorocyclopropyl)(6-(4-(2-(pyrimidin-2-ylmethoxy)phenyl)piperidin-1-yl)-2-azaspiro[3.4]octan-2-yl)methanone]
4 | – | 1.34 | – | > 25 | – | > 25 | 27 | 0 | 0 | COc1ccccc1C1CCN([C@@H]2CCC3(C2)CN(c2cccnn2)C3)CC1 [Example 5O, (R)-6-(4-(2-methoxyphenyl)piperidin-1-yl)-2-(pyridazin-3-yl)-2-azaspiro[3.4]octane]
5 | 45 | 0.022 | 0 | > 25 | 0 | > 25 | – | – | – | O=C(N1CC2(CC[C@@H](N3CCC(c4ccccc4OCCO)CC3)C2)C1)C1(F)CC1 (single isomer, unassigned) [Example 7N, (R)-(1-fluorocyclopropyl)(6-(4-(2-(2-hydroxyethoxy)phenyl)piperidin-1-yl)-2-azaspiro[3.4]octan-2-yl)methanone or (S)-(1-fluorocyclopropyl)(6-(4-(2-(2-hydroxyethoxy)phenyl)piperidin-1-yl)-2-azaspiro[3.4]octan-2-yl)methanone]

Continued, compound first:

Row | SMILES | M1 FDSS PA [1] [%] | EC50 [1] [µM] | M3 FDSS PA [2] [%] | EC50 [2] [µM] | M5 FDSS PA [3] [%] | EC50 [3] [µM] | Emax [1] [%] | Emax [2] [%] | Emax [3] [%]
6 | COc1ccccc1C1CCN([C@@H]2CCC3(C2)CN(c2nccnc2C)C3)CC1 [Example 5J, (R)-6-(4-(2-methoxyphenyl)piperidin-1-yl)-2-(3-methylpyrazin-2-yl)-2-azaspiro[3.4]octane] | – | 0.1 | – | > 25 | – | > 25 | 60 | 0 | 0
7 | O=C(N1CC2(CC[C@@H](N3CCC(c4ccccc4C4(O)CCOCC4)CC3)C2)C1)C1(F)CC1 (single isomer, unassigned) [Example 9G, (R)-(1-fluorocyclopropyl)(6-(4-(2-(4-hydroxytetrahydro-2H-pyran-4-yl)phenyl)piperidin-1-yl)-2-azaspiro[3.4]octan-2-yl)methanone or (S)-(1-fluorocyclopropyl)(6-(4-(2-(4-hydroxytetrahydro-2H-pyran-4-yl)phenyl)piperidin-1-yl)-2-azaspiro[3.4]octan-2-yl)methanone] | 16 | 0.301 | 0 | > 25 | 0 | > 25 | – | – | –
8 | FC(F)(F)Oc1ccccc1C1CCN([C@@H]2CCC3(C2)CN(c2nncs2)C3)CC1 (single isomer, unassigned) [Example 10N, (R)-2-(6-(4-(2-(trifluoromethoxy)phenyl)piperidin-1-yl)-2-azaspiro[3.4]octan-2-yl)-1,3,4-thiadiazole or (S)-2-(6-(4-(2-(trifluoromethoxy)phenyl)piperidin-1-yl)-2-azaspiro[3.4]octan-2-yl)-1,3,4-thiadiazole] | 0 | > 25 | 0 | > 25 | 0 | > 25 | – | – | –
9 | COc1ccccc1C1CCN([C@@H]2CCC3(C2)CN(c2ccc(C)nc2)C3)CC1 [Example 5D, (R)-6-(4-(2-methoxyphenyl)piperidin-1-yl)-2-(6-methylpyridin-3-yl)-2-azaspiro[3.4]octane] | – | > 25 | – | > 25 | – | > 25 | 0 | 0 | 0
10 | Cc1noc(C)c1COc1ccccc1C1CCN([C@@H]2CCC3(C2)CN(C(=O)C2(F)CC2)C3)CC1 (single isomer, unassigned) [Example 7U, (R)-(6-(4-(2-((3,5-dimethylisoxazol-4-yl)methoxy)phenyl)piperidin-1-yl)-2-azaspiro[3.4]octan-2-yl)(1-fluorocyclopropyl)methanone or (S)-(6-(4-(2-((3,5-dimethylisoxazol-4-yl)methoxy)phenyl)piperidin-1-yl)-2-azaspiro[3.4]octan-2-yl)(1-fluorocyclopropyl)methanone] | 0 | > 25 | 0 | > 25 | 0 | > 25 | – | – | –
11 | COc1ccccc1C1CCN([C@@H]2CCC3(C2)CN(c2ncon2)C3)CC1 [Example 4A, (R)-3-(6-(4-(2-methoxyphenyl)piperidin-1-yl)-2-azaspiro[3.4]octan-2-yl)-1,2,4-oxadiazole] | – | 0.015 | – | > 25 | – | 0.7 | 83 | 0 | 6
12 | c1ccc(C2CCN([C@@H]3CCC4(C3)CN(c3nnco3)C4)CC2)c(OC[C@H]2COCCO2)c1 [Example 1C, 2-((R)-6-(4-(2-(((R)-1,4-dioxan-2-yl)methoxy)phenyl)piperidin-1-yl)-2-azaspiro[3.4]octan-2-yl)-1,3,4-oxadiazole] | – | 0.056 | – | > 25 | – | > 25 | 85 | 0 | 0
13 | O[C@H]1CC[C@@H](c2ccccc2C2CCN([C@@H]3CCC4(C3)CN(c3nnco3)C4)CC2)CC1 (single isomer, unassigned) [Example 2N, (1S,4s)-4-(2-(1-((R)-2-(1,3,4-oxadiazol-2-yl)-2-azaspiro[3.4]octan-6-yl)piperidin-4-yl)phenyl)cyclohexan-1-ol or (1R,4r)-4-(2-(1-((R)-2-(1,3,4-oxadiazol-2-yl)-2-azaspiro[3.4]octan-6-yl)piperidin-4-yl)phenyl)cyclohexan-1-ol] | 69 | 0.302 | 0 | > 25 | 0 | > 25 | – | – | –
